pIC50: −log10 of the molar value.
Legend:
BCR-NTRK3 BaF3 cells = molecular target: T1, BCR-NTRK3 BaF3 cells (Homo sapiens, UniProt Q16288); experiment: BaF3 BCR-NTRK3 cell proliferation assay (ATPlite); assay type: cell-based; conditions: read-out: Inhibition of Cell Proliferation IC50, BCR/BaF3 TrkC
T1 construct: fused on or other part: P11274 (Breakpoint cluster region protein)
Summary of the method: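 BaF3 cells expressing BCR fusions were plated at 10,000 cells/well without IL-3, and MV-4-11 cells at 25,000 cells/well. Cells were treated the next day with an 8-point 1:3 dilution series (top 10 μM final) and incubated 3 days at 37 °C. ATPlite luminescence gave cell number, from which IC50 was fitted.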

[1] = Relative solubility by turbidity in aqueous buffers (pH 1.5, 4.5, 6.8, 7.4); assay type: physicochemical
Summary of the method: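 Twofold DMSO dilutions of a 25 mM stock were spiked into SGF (0.5M NaCl, pH 1.5), SIF (0.05M NaH2PO4, pH 4.5 and 6.8) or HEPES buffer (10 mM HEPES, 150 mM NaCl, pH 7.4). Absorbance was read at 490, 535 and 650 nm. The endpoint is the concentration crossing O.D. 0.01, averaged across wavelengths.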

T1 sequence (Q16288 whole entry, the tested form may be a part): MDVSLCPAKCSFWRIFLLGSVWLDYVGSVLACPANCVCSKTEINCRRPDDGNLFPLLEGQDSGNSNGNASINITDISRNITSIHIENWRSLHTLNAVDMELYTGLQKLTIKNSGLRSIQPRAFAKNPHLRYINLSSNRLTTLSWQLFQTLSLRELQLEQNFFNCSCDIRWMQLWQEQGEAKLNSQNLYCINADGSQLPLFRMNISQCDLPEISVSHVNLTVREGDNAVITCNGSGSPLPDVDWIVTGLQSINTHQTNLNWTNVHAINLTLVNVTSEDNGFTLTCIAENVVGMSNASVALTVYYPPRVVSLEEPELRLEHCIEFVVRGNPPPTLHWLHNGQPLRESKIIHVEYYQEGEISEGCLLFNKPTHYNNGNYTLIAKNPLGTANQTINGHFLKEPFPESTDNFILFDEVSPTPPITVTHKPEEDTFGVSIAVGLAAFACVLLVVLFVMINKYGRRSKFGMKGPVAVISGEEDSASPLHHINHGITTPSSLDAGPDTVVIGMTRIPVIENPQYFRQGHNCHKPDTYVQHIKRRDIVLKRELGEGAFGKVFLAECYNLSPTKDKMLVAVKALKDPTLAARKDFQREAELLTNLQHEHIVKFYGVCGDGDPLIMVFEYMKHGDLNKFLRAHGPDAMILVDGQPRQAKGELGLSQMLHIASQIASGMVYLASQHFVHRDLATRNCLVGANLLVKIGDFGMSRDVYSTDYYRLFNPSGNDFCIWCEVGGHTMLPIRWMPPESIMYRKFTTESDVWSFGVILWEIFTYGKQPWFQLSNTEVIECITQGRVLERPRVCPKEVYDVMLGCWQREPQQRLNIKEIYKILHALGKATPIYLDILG

pIC50 (BCR-NTRK3 BaF3 cells)	Compound	further results
< 5.00	Clc1cnc2[nH]cc(Cc3cnc(NC4CC4)nc3)c2c1 [Compound P-3005, [5-(5-Chloro-1H-pyrrolo[2,3-b]pyridin-3-ylmethyl)-pyrimidin-2-yl]-cyclopropyl-amine]	–
< 5.00	Clc1cnc2[nH]cc(Cc3cnc(NC4CCCCCC4)nc3)c2c1 [Compound P-3006, [5-(5-Chloro-1H-pyrrolo[2,3-b]pyridin-3-ylmethyl)-pyrimidin-2-yl]-cycloheptyl-amine]	–
< 5.00	COc1ccccc1Nc1ncc(Cc2c[nH]c3ncc(Cl)cc23)cn1 [Compound P-3016, [5-(5-Chloro-1H-pyrrolo[2,3-b]pyridin-3-ylmethyl)-pyrimidin-2-yl]-(2-methoxy-phenyl)-amine]	–
< 5.00	Fc1cccc(Nc2ncc(Cc3c[nH]c4ncc(Cl)cc34)cn2)c1 [Compound P-3017, [5-(5-Chloro-1H-pyrrolo[2,3-b]pyridin-3-ylmethyl)-pyrimidin-2-yl]-(3-fluoro-phenyl)-amine]	–
> 7.00	COc1ccc(Nc2ncc(Cc3c[nH]c4ncc(C)cc34)cn2)cc1 [Compound P-3021, (4-Methoxy-phenyl)-[5-(5-methyl-1H-pyrrolo[2,3-b]pyridin-3-ylmethyl)-pyrimidin-2-yl]-amine]	–
> 7.00	CCCOc1ccc(Nc2ncc(Cc3c[nH]c4ncc(C)cc34)cn2)cc1 [Compound P-3024, [5-(5-Methyl-1H-pyrrolo[2,3-b]pyridin-3-ylmethyl)-pyrimidin-2-yl]-(4-propoxy-phenyl)-amine]	–
> 8.00	CCc1ccc(Nc2ncc(Cc3c[nH]c4ncc(C)cc34)cn2)cc1 [Compound P-3025, (4-Ethyl-phenyl)-[5-(5-methyl-1H-pyrrolo[2,3-b]pyridin-3-ylmethyl)-pyrimidin-2-yl]-amine]	–
> 7.00	CCOc1ccc(Nc2ncc(Cc3c[nH]c4ncc(C)cc34)cn2)cc1 [Compound P-3026, (4-Ethoxy-phenyl)-[5-(5-methyl-1H-pyrrolo[2,3-b]pyridin-3-ylmethyl)-pyrimidin-2-yl]-amine]	–
> 7.00	Cc1cnc2[nH]cc(Cc3cnc(Nc4cc(-c5ccc(F)cc5)n[nH]4)nc3)c2c1 [Compound P-3028, [5-(4-Fluoro-phenyl)-2H-pyrazol-3-yl]-[5-(5-methyl-1H-pyrrolo[2,3-b]pyridin-3-ylmethyl)-pyrimidin-2-yl]-amine]	–
> 6.00	Cc1cnc2[nH]cc(Cc3cnc(Nc4cc(C(C)(C)C)n[nH]4)nc3)c2c1 [Compound P-3029, (5-tert-Butyl-2H-pyrazol-3-yl)-[5-(5-methyl-1H-pyrrolo[2,3-b]pyridin-3-ylmethyl)-pyrimidin-2-yl]-amine]	–
> 8.00	Cc1cnc2[nH]cc(Cc3cnc(Nc4ccc(C(C)(C)C)cc4)nc3)c2c1 [Compound P-3030, (4-tert-Butyl-phenyl)-[5-(5-methyl-1H-pyrrolo[2,3-b]pyridin-3-ylmethyl)-pyrimidin-2-yl]-amine amine]	–
> 8.00	Cc1cnc2[nH]cc(Cc3cnc(Nc4ccc(C(O)(C(F)(F)F)C(F)(F)F)cc4)nc3)c2c1 [Compound P-3031, 1,1,1,3,3,3-Hexafluoro-2-{4-[5-(5-methyl-1H-pyrrolo[2,3-b]pyridin-3-ylmethyl)-pyrimidin-2-ylamino]-phenyl}-propan-2-ol]	–
–	CCn1cc(Nc2ccc(C(=O)c3c[nH]c4ncnc(C5CC5)c34)c(F)n2)cn1 [Compound P-4037, (4-Cyclopropyl-7H-pyrrolo[2,3-d]pyrimidin-5-yl)-[6-(1-ethyl-1H-pyrazol-4-ylamino)-2-fluoro-pyridin-3-yl]-methanone]	turbidity threshold (L, M, H) 1.4 ([1]; pH 1.5 (SGF)): H (high solubility if the threshold concentration is >250 μm); turbidity threshold (L, M, H) 4.5 ([1]; pH 4.5 (SIF)): M (moderate solubility if the threshold concentration is 31.3 μM to 250 μM); turbidity threshold (L, M, H) 6.8 ([1]; pH 6.8 (SIF)): M (moderate solubility if the threshold concentration is 31.3 μM to 250 μM); turbidity threshold (L, M, H) 7.4 ([1]; pH 7.4 (HEPES)): M (moderate solubility if the threshold concentration is 31.3 μM to 250 μM)
